# Tested on: parental CHO cells
# Conditions: parental CHO cells lacking hERG ion channels; potassium-free starvation buffer; FIG. 3
# Method: This protocol employs potassium free starvation buffer to depolarize cells and thereby open ion channels such that screening ion channel modulators is possible. Colorimetric resonant reflectance biosensor plates were washed with 1×PBS for hydration baseline for 3 to 5 minutes. A PWV was determined for each of the wells. […] The plates were coated with 25.0 μl/well of fibronectin for 2 hrs at room temperature. The plates were blocked for 1 hour at room temperature or overnight at 4° C. by addition of 25.0 μl ovalbumin or BSA in PBS to the wells previously coated with fibronectin.
# Starvation buffers were prepared with and without potassium. For 500.0 ml potassium-free starvation buffer the following reagents were used: 25 ml of 3M NaCl for 150 mM NaCl final; 10.0 ml for 20 mM HEPES; 1.0 ml for 2 mM calcium chloride; 0.5 ml for 2 mM magnesium chloride; 1.0 ml for 5 mM D-(+)-glucose; up to 500.0 ml with H2O HPLC. Potassium starvation buffer is prepared the same as above, but with 2 mM KCl added. […]
# 20.0 μl of potassium-containing starvation buffer was added to each well. […] The average number of cells/well was determined. […]
# PWVs are taken for the biosensor plates for 3 to 5 minutes or until a stable read of less than 1-2 pm change/minute is attained. […]
structure (smiles),measurement,value
COc1cc(N)c(Cl)cc1C(=O)NC1CCN(CCCOc2ccc(F)cc2)CC1OC (stereo not shown) [Cisapride monohydrate],effect of the inhibitors on cell swelling in parental CHO cells (PWV),little to no effect
